Experimental data from US5457030A, “Method and composition for determining antimicrobial susceptibility of the majority clinically significant Gram postitive organism” (MicroScan, Inc., priority 1993, dated 1995).
In brackets after ≈: the same amount, converted by molar mass. Like-named read-outs stand apart in the source and are kept apart here.

Experiments:
[1] = Redissolution of fluorogenic substrate after dehydration; assay type: physicochemical
Source text: In the Sensititre™ procedure the substrates mixture consists of alanyl-7-amido-4-methylcoumarin, 4-methylumebelliferyl phosphate and 4-methylumbelliferyl nonanoate. […] Moreover, a special procedure of drying the substrate mixture on a solid carrier in combination with an emulsifying agent was the preferred method in the EP #0,09187 description. Removal of this compound from the mixture allows easy preparation and aliquoting of the fluorogenic substrate mixture. […] The current fluorogenic substrate mixture also allows for testing of a larger range of Gram positive species than previously described. Additionally, the use of the autoSCAN®-W/A allows monitoring of growth for between 31/2 and 15 hours, determination of minimum inhibitory concentration occurring only when sufficient growth has been achieved. This ensures that the minimum inhibitory concentration determinations of each isolate is determined at the optimal time.

Enterococcus faecalis [2] = assay: Minimum inhibitory concentration determination, Example 1 (Table 7); assay type: cell-based
Procedure: (§1) A primary inoculum suspension of a bacterial isolate in saline-pluronic, equivalent to a 0.5 McFarland turbidity standard is prepared. The final inoculum suspension is prepared by diluting a 0.3 ml aliquot of the primary suspension in 25 ml of Rapid Pos Inoculum Broth (B1015-14, Baxter Diagnostics Inc., MicroScan Division, West Sacramento, Calif.). A 115 μl of the final inoculum is added to the growth compartment which contains dried material of fluorogenic enzyme substrates equivalent to 0.023 mM leucine-7-amido-4-methylcoumarin, 0.012 mM phenylalanine-7-amido-4-methylcoumarin and 0.058 mM methylumbelliferyl phosphate and 1.15 mM HEPES buffer at pH 7.0. The final inoculum is also added to a number of compartments containing dried material identical to that in the growth well and different concentrations of an antimicrobial agent. An aliquot of the final inoculum is also added to a compartment, containing only dried HEPES buffer, acting as a control. The inoculated multicompartment device (panel) is inserted in the autoSCAN®-W/A. The fluorescence of each compartment is measured at predetermined times and a Growth Index is calculated by dividing the fluorescence of the growth compartment by that of the negative control compartment.
(§2) If the value of the Growth Index is equal to or exceeds a specified value, the Minimum Inhibitory Concentration for every antimicrobial agent present in the multicompartment device is calculated. Otherwise the device is returned to its position and measured again at the next read time. The read times in this example are 3.5, 4.5, 5.5, 7.0, 8.0, 11.0, and 15.0 hours. For calculation of minimum inhibitory concentration, the percent fluorescence of compartments containing the different concentrations of the antimicrobial agent is calculated by subtracting from each compartment the fluorescence of the control well and dividing it by the delta fluorescence of the growth compartment, obtained by subtracting the fluorescence of the negative control compartment from the fluorescence of the growth compartment. The minimum inhibitory concentration is calculated using a mathematical model specific for each concentration range of the antimicrobial agent. Using a mathematical model based on discriminate functional analysis, the minimum inhibitory concentration of each antimicrobial agent, for the organism tested, can be determined. Utilization of a discriminate function analysis model in microbiological pattern recognition is described in S. Bascomb, Computers in Taxonomy and Systematics, p. 65-102 In T. N. Bryant and J. W. T. Wimpenny (Ed.), Computers in Microbiology, a Practical Approach (IRL Press, Oxford). In an alternative embodiment the minimum inhibitory concentration for each antimicrobial agent for the organism tested can be determined by a breakpoint or threshold method or linear regression analysis. J. McKie, et al., Antimicrobial Agents and Chemotherapy (1980) v. 17, 813-823.
(§3) In Example 1, the growth of Enterococcus faecalis in wells containing specified amounts of antimicrobial agents is estimated by measurement of fluorescence. In Table 6, the percent fluorescence at different concentrations of antimicrobial agents is reported. For example, 0.12, 0.25, 0.5, 1, 2, 4 and 8 μg/mL of ampicillin (Am) were present in the microdilution wells.
In Table 7, the minimum inhibitory concentration for Example 1 are reported.

Enterococcus faecalis [3] = assay: Percent fluorescence (growth) in wells containing antimicrobial agents, Example 1 (Table 6); assay type: cell-based; conditions: Enterococcus faecalis; for activity at 32 µg/mL: 32 μg/mL
Procedure: as §1
^FL growth - ^FL control
as §2, §3
The numbers 105, 105, 67, 7, 6, 5, 6 are percent fluorescence values as calculated in […]. These figures are used to determine susceptibility according to the methods discussed on pages 12 and 13.

[4] = Enterococcus faecalis, Table 7, Example 1, read-out: concentration at which organism was found to be resistant
[5] = Table 7, Enterococcus faecalis, Example 1, read-out: minimum inhibitory concentration
[6] = 8 μg/mL, read-out: percent fluorescence
[7] = 16 μg/mL, read-out: percent fluorescence
[8] = Enterococcus faecalis, Table 7, Example 1, read-out: concentration at which organism was found to be susceptible
[9] = 1 μg/mL, read-out: percent fluorescence
[10] = 2 μg/mL, read-out: percent fluorescence
[11] = 4 μg/mL, read-out: percent fluorescence
[12] = .25 μg/mL, read-out: percent fluorescence
[13] = Enterococcus faecalis, read-out: concentration at which organism was found to be susceptible
[14] = Enterococcus faecalis, read-out: minimum inhibitory concentration

For `CCCCCCCCC(=O)Oc1ccc2c(C)cc(=O)oc2c1` [4-methylumbelliferyl nonanoate], the redissolution after dehydration [1] was “difficult to redissolve evenly after dehydration”.
For `Cn1nnnc1SCC1=C(C(=O)O)N2C(=O)[C@@H](NC(=O)[C@H](O)c3ccccc3)[C@H]2SC1` [Cefamandole], the MIC (Enterococcus faecalis [2]; [4]) was > 16 µg/mL, the MIC (Enterococcus faecalis [2]; [5]) was > 16 µg/mL and the activity at 8 µg/mL (Enterococcus faecalis [3]; [6]) was 104%. The activity at 16 µg/mL (Enterococcus faecalis [3]; [7]) was 105%.
In the case of `CC1(C)S[C@@H]2[C@H](NC(=O)[C@H](N)c3ccccc3)C(=O)N2[C@H]1C(=O)O` [Ampicillin], the MIC (Enterococcus faecalis [2]; [8]) is reported as 0.5 µg/mL (≈ 1.43 µM), the MIC (Enterococcus faecalis [2]; [5]) is reported as 0.5 µg/mL (≈ 1.43 µM) and the activity at 1 µg/mL (Enterococcus faecalis [3]; [9]) is reported as 7%. For the same compound, the activity at 2 µg/mL (Enterococcus faecalis [3]; [10]) was 6%, the activity at 4 µg/mL (Enterococcus faecalis [3]; [11]) was 5% and the activity at 8 µg/mL (Enterococcus faecalis [3]; [6]) was 6%. The activity at 0.12 µg/mL (Enterococcus faecalis [3]; .12 μg/mL, read-out: percent fluorescence) was 105%, the activity at 0.25 µg/mL (Enterococcus faecalis [3]; [12]) was 105% and the activity at 0.5 µg/mL (Enterococcus faecalis [3]; .5 μg/mL, read-out: percent fluorescence) was 67%.
With `O=C1CN(/N=C/c2ccc([N+](=O)[O-])o2)C(=O)N1` [Nitrofurantoin] the MIC (Enterococcus faecalis [2]; [8]) was < 32 µg/mL, the MIC (Enterococcus faecalis [2]; [5]) was < 32 µg/mL and the activity at 32 µg/mL (Enterococcus faecalis [3]) was 86%. For the same compound, the activity at 46 µg/mL (Enterococcus faecalis [3]; 46 μg/mL (printed 46Fd)) was 21%.
Work on `CC[C@H]1OC(=O)[C@H](C)[C@@H](O[C@H]2C[C@@](C)(OC)[C@@H](O)[C@H](C)O2)[C@H](C)[C@@H](O[C@@H]2O[C@H](C)C[C@H](N(C)C)[C@H]2O)[C@](C)(O)C[C@@H](C)C(=O)[C@H](C)[C@@H](O)[C@]1(C)O` [Erythromycin] yielded an MIC (Enterococcus faecalis [2]; [13]) of 4 µg/mL (≈ 5.45 µM), an MIC (Enterococcus faecalis [2]; [14]) of 4 µg/mL (≈ 5.45 µM) and an activity at 0.25 µg/mL (Enterococcus faecalis [3]; read-out: percent fluorescence) of 59%. The activity at 0.5 µg/mL (Enterococcus faecalis [3]; read-out: percent fluorescence) was 9%, the activity at 1 µg/mL (Enterococcus faecalis [3]; read-out: percent fluorescence) was 5% and the activity at 2 µg/mL (Enterococcus faecalis [3]; read-out: percent fluorescence) was 5%. It also gave an activity at 4 µg/mL (Enterococcus faecalis [3]; read-out: percent fluorescence) of 4%.
With `CCC[C@@H]1C[C@@H](C(=O)N[C@@H]([C@H]2O[C@H](SC)[C@H](O)[C@@H](O)[C@H]2O)[C@H](C)Cl)N(C)C1` [Clindaimycin, Clindamycin] the MIC (Enterococcus faecalis [2]; [4]) was > 2 µg/mL, the MIC (Enterococcus faecalis [2]; [5]) was > 2 µg/mL and the activity at 1 µg/mL (Enterococcus faecalis [3]; [9]) was 75%. The activity at 2 µg/mL (Enterococcus faecalis [3]; [10]) was 71%, the activity at 5 µg/mL (Enterococcus faecalis [3]; 5 μg/mL (printed 5Cd)) was 83% and the activity at 0.25 µg/mL (Enterococcus faecalis [3]; [12]) was 88%.
For `CO/N=C(\C(=O)N[C@@H]1C(=O)N2C(C(=O)O)=C(CSc3nc(=O)c(=O)[nH]n3C)CS[C@H]12)c1csc(N)n1` [Ceftriaxone], the activity at 4 µg/mL (Enterococcus faecalis [3]; [11]) was 15%, the activity at 8 µg/mL (Enterococcus faecalis [3]; [6]) was 9% and the activity at 16 µg/mL (Enterococcus faecalis [3]; [7]) was 8%. For the same compound, the activity at 32 µg/mL (Enterococcus faecalis [3]) was 7%.
For `C[C@@H](O)[C@H]1C(=O)N2C(C(=O)O)=C(SCCN=CN)C[C@H]12` [Imipenem], the MIC (Enterococcus faecalis [2]; [8]) was 4 µg/mL (≈ 13.4 µM), the MIC (Enterococcus faecalis [2]; [5]) was 4 µg/mL (≈ 13.4 µM) and the activity at 1 µg/mL (Enterococcus faecalis [3]; [9]) was 65%. For the same compound, the activity at 2 µg/mL (Enterococcus faecalis [3]; [10]) was 5%, the activity at 4 µg/mL (Enterococcus faecalis [3]; [11]) was 5% and the activity at 8 µg/mL (Enterococcus faecalis [3]; [6]) was 5%.
With `CN[C@H](CC(C)C)C(=O)N[C@H]1C(=O)N[C@@H](CC(N)=O)C(=O)N[C@H]2C(=O)N[C@H]3C(=O)N[C@H](C(=O)N[C@H](C(=O)O)c4cc(O)cc(O)c4-c4cc3ccc4O)[C@H](O)c3ccc(c(Cl)c3)Oc3cc2cc(c3O[C@@H]2O[C@H](CO)[C@@H](O)[C@H](O)[C@H]2O[C@H]2C[C@](C)(N)[C@H](O)[C@H](C)O2)Oc2ccc(cc2Cl)[C@H]1O` [Vancomycin] the MIC (Enterococcus faecalis [2]; [13]) was < 2 µg/mL, the MIC (Enterococcus faecalis [2]; [14]) was < 2 µg/mL and the activity at 2 µg/mL (Enterococcus faecalis [3]; read-out: percent fluorescence) was 5%. It also gave an activity at 4 µg/mL (Enterococcus faecalis [3]; read-out: percent fluorescence) of 5%, an activity at 8 µg/mL (Enterococcus faecalis [3]; read-out: percent fluorescence) of 5% and an activity at 16 µg/mL (Enterococcus faecalis [3]; read-out: percent fluorescence) of 2%.
In the case of `CO[C@H]1/C=C/O[C@@]2(C)Oc3c(C)c(O)c4c(O)c(c(/C=N/N5CCN(C)CC5)c(O)c4c3C2=O)NC(=O)/C(C)=C\C=C\[C@H](C)[C@H](O)[C@@H](C)[C@@H](O)[C@@H](C)[C@H](OC(C)=O)[C@@H]1C` [Rifampin], the MIC (Enterococcus faecalis [2]; [13]) is reported as 2 µg/mL (≈ 2.43 µM), the MIC (Enterococcus faecalis [2]; [14]) is reported as 2 µg/mL (≈ 2.43 µM) and the activity at 1 µg/mL (Enterococcus faecalis [3]; read-out: percent fluorescence) is reported as 58%. For the same compound, the activity at 2 µg/mL (Enterococcus faecalis [3]; read-out: percent fluorescence) was 21%.
In the case of `O=C(N[C@H](CO)[C@H](O)c1ccc([N+](=O)[O-])cc1)C(Cl)Cl` [Chloramphenicol], the MIC (Enterococcus faecalis [2]; [13]) is reported as < 4 µg/mL, the MIC (Enterococcus faecalis [2]; [14]) is reported as < 4 µg/mL and the activity at 4 µg/mL (Enterococcus faecalis [3]; read-out: percent fluorescence) is reported as 9%. It also gave an activity at 8 µg/mL (Enterococcus faecalis [3]; read-out: percent fluorescence) of 6% and an activity at 16 µg/mL (Enterococcus faecalis [3]; read-out: percent fluorescence) of 4%.
